Reference: patent publication US20200096524A1, “PLASMA AND LIVER LIPID SPECIES AS BIOMARKERS OF FATTY LIVER” (École Polytechnique Fédérale de Lausanne (EPFL), priority 2017, published 2020)

Key:
[1] = system: C57BL/6J mice fed HFHS diet (fatty liver); test: high-fat high-sucrose (HFHS) diet induced NAFLD mouse model, therapeutic NR supplementation, liver lipidomics; format: in vivo
Excerpt: (A-C) C57BL/6J mice: (A) Schematic illustration of the three experimental groups used for validation of the NAFLD signatures; mice on CD (green), mice on HFHS diet from 7-25 weeks (grey), mice starting HFHS diet at 7 weeks and treated with nicotinamide riboside (NR) 9 weeks after the start of HFHS diet till the end of the study (for 9 weeks—therapeutic intervention, magenta). (B) Liver total TAG concentration (normalized to liver weight). […] (D-E) Human subjects: (D) PCA of 55 TAG species measured in human plasma from healthy, steatosis and NASH patients. (E) Plasma total TAG levels in human samples. (F-G) BXDs: (F) Correlation matrix showing the Pearson correlation of Atgl mRNA expression in four different metabolic tissues with the pro- and anti-NAFLD TAG signatures in plasma (left) and liver (right) for both diets. (G) Gene ontology biological processes (GO BP) associated with NAFLD TAG signatures. […] Red and blue cells represent the enriched pathways with the positively (scale bar: log 10 p-value) and negatively (scale bar: −log 10 p-value) correlated liver transcripts respectively. For B and E differences in mean TAG levels were compared using two-sample t tests. *p<0.05, **p<0.01, ***p<0.001.
(A) Levels of pro- and anti-NAFLD signatures in C57BL/6J mice fed on CD, high-fat high-sucrose-diet (HFHS) and HFHS diet supplemented with NR, 9 weeks after the initiation of HFHS diet (HFHS+NR). (B) Pearson correlation matrix of the pro- and anti-NAFLD signatures with NAFLD readouts including the NAS score (NAFLD activity score) and liver NAD+ levels. (C) Levels of plasma NAFLD signatures in human subjects with various degrees of NAFLD. (D) Pearson correlation matrix of the NAFLD signatures with NAFLD readouts in human subjects. (E) Pearson correlation of Atgl expression in subcutaneous WAT with pro- and anti-NAFLD plasma TAG signatures in BXD strains. For mice: n=6-9 per group. For human subjects: n=12, healthy; n=7, steatosis; n=14, early stage NASH; n=11, advanced stage NASH. Differences in mean TAG species were compared using two-sample t tests. *p<0.05, **p<0.01, ***p<0.001.
(A) Correlation diagram (corrgram) showing diet-independent association of lipid species with liver mass. […] Note that the CLs—CL(LOOPo), CL(LLPoP) and CL(OOOP)—are shown in the figure with an additional CL species because the two are isobaric and inseparable chromatographically. (F) Corrgram showing negative correlation of obesity and NAFLD traits with healthy CL species and positive correlation with unhealthy CL species.
It was then tested the relevance of these lipids as signatures of fatty liver in a different mouse model of NAFLD (induced by high-fat high-sucrose (HFHS) diet) and tested whether a NAFLD lowering therapeutic intervention, i.e. nicotinamide adenine dinucleotide (NAD^+) precursor, nicotinamide riboside (NR), impacts these lipid markers. As such, the liver lipids were compared of mice fed CD or HFHS diet for 18 weeks, or mice that were fed HFHS diet supplemented with NR 9 weeks after the start of HFHS diet when they had already developed NAFLD (a therapeutic intervention, HFHS+NR) (FIG. 11A). […] Of all the TAG species measured, only 53% were increased in HFHS cohort while 33% were decreased and 14% unchanged (data not shown). […] Importantly, the pro-NAFLD lipids correlated positively, whereas the anti-NAFLD lipids correlated negatively with clinical NAFLD readouts (FIG. 12B).
It was next tested whether this change in the profile of nine CL species is a general phenomenon in other dietary-induced models of hepatic steatosis and mitochondrial dysfunction and if the profile can be reverted by ameliorating hepato-steatosis via enhancing mitochondrial function. It has been previously shown that nicotinamide riboside (NR) treatment ameliorates high-fat high-sucrose (HFHS) diet induced fatty liver disease by boosting nicotinamide adenine dinucleotide (NAD+) levels and thereby enhancing mitochondrial function. […]

[2] = system: high-fat high-sucrose (HFHS) diet induced fatty liver disease; conditions: previously shown; by boosting NAD+ levels and enhancing mitochondrial function; cited from earlier work

With `NC(=O)c1ccc[n+]([C@@H]2O[C@H](CO)[C@@H](O)[C@H]2O)c1` [NR, nicotinamide riboside] the “liver anti-NAFLD lipids (TAGs 52:5, 52:4, 54:6)” value ([1]; C57BL/6J mice, HFHS+NR vs HFHS, FIG. 12A) was “increased the anti-NAFLD lipids only to a slight extent”, the “liver levels of healthy CLs (CL(LLLL), MLCL(LLL))” value ([1]; C57BL/6J mice, HFHS+NR vs HFHS, FIG. 13D) was “increased” and the “liver levels of unhealthy CLs (MLCL(LOO), MLCL(LLO), CL(LOOPo), CL(LLPoP), CL(LOOO), CL(OOOP))” value ([1]; C57BL/6J mice, HFHS+NR vs HFHS, FIG. 13E) was “decreased”. For the same compound, the “liver total TAG concentration” value ([1]; C57BL/6J mice, HFHS+NR vs HFHS, NR added 9 weeks after start of HFHS diet, 18 weeks total, FIG. 11B) was “decreased”, the “liver pro-NAFLD lipids (TAGs 52:2, 54:3, 56:3, 50:2)” value ([1]; C57BL/6J mice, HFHS+NR vs HFHS, lowered: TAGs 54:3, 56:3, 50:2, FIG. 12A) was “significantly lowered three of the four pro-NAFLD lipids” and the “liver NAD+ levels” value ([1]; steatotic livers of HFHS mice, after NR treatment, FIG. 12B) was “replenished”. The “HFHS diet induced fatty liver disease” value [2] was “ameliorates”.
